Consider 20 molecules from US20230192626A1 (Baylor College of Medicine, priority 2020, published 2023).

The target of this assay is T1, Human sEH (hsEH) (Homo sapiens, UniProt P34913).
T1 construct: purchased Cayman Chemicals
T1 sequence (P34913 1-555): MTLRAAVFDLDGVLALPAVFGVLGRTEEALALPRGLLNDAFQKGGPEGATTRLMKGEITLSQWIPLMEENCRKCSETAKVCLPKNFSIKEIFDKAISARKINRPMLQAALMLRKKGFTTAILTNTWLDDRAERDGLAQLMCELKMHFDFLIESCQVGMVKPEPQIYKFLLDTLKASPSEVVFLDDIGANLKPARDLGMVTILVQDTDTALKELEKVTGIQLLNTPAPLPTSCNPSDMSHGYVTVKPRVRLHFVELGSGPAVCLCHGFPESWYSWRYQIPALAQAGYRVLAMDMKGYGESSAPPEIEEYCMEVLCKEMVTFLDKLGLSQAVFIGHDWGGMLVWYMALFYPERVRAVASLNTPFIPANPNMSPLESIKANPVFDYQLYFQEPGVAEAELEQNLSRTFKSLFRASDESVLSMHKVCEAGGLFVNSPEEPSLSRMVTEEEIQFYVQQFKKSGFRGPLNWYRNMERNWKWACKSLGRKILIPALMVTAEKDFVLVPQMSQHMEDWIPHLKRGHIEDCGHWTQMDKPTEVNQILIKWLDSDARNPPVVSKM
As to the kind of experiment: fluorescence-based sEH biochemical inhibition assay (PHOME substrate). The note with it: Table 1; hsEH 5 nM, PHOME 50 μM, 30° C. Here is the method: The benzimidazole-based compounds synthesized according to Example 1 were measured for activity. Using a fluorescence-based sEH biochemical inhibition assay, the IC50 value was measured for each benzimidazole-based compound. Human sEH (hsEH) and its substrate PHOME were purchased from Cayman Chemicals. IC50 values of hsEH inhibitors were determined by fluorescence. IC50 is defined as the concentration of the inhibitor that blocks 50% of the enzymatic activity. To a 96-well plate containing 10 μL enzyme (5 nM in water), 60 μL of H2O and 10 μL BisTris-HCl buffer (25 mM, pH 7.0) were added inhibitors with different concentrations. The mixture was incubated for 5 min at 30° C. prior to addition of 10 μL of PHOME substrate (50 μM). Fluorescence were measured at 30° C. with an excitation wavelength of 330 nm and an emission wavelength of 465 nm using a BioTek H1 plate reader. The IC50 values were calculated by non-linear regression fitting. The curve was generated from at least three separate runs, each in duplicates. Results are given as means and standard deviations. In Table 1, an IC50 value less than or equal to 1 μM is indicated as an “A.” an IC50 value from greater than 1 μM to less than 10 μM is indicated as a “B′” and an IC50 value of greater than or equal to 10 μM is indicated as a “C.”
Additional benzimidazole-based compounds as described herein were measured for activity according to the procedure outlined in Example 2. Briefly, using a fluorescence-based sEH biochemical inhibition assay, the IC50 value was measured for each benzimidazole-based compound.
As for `CCc1ccc(-c2nc3ccccc3[nH]2)cc1` [Compound 37, 2-(4-ethylphenyl)-1H-benzo[d]imidazole], the IC50 (usually the concentration that inhibits the measured activity by half) was in the range of 1 to 10 µM.
As for `Cc1cc2nc(-c3ccccc3O)[nH]c2cc1C` [Compound 9, 2-(5,6-dimethyl-1H-benzo[d]imidazol-2-yl)phenol], the figure is not below 10 µM; as for `N#Cc1ccc(-c2nc3cc(F)c(F)cc3[nH]2)cc1` [Compound 54, 4-(5,6-difluoro-1H-benzo[d]imidazol-2-yl)benzonitrile], not above 1 µM; as for `Fc1cc2nc(-c3ccc(C(F)(F)F)cc3)[nH]c2cc1Br` [Compound 44, 6-bromo-5-fluoro-2-(4-(trifluoromethyl)phenyl)-1H-benzo[d]imidazole], not above 1 µM.
As for `O=C(O)c1ccc(-c2nc3cc(F)c(F)cc3[nH]2)cc1` [Compound 56], the figure is not above 1 µM; as for `Oc1ccc(-c2nc3cc(F)c(F)cc3[nH]2)cc1` [Compound 33, 4-(5,6-difluoro-1H-benzo[d]imidazol-2-yl)phenol], not below 10 µM.
As for `CC(=O)Nc1ccc(-c2nc3cc(F)c(F)cc3[nH]2)cc1` [Compound 47, N-(4-(5,6-difluoro-1H-benzo[d]imidazol-2-yl)phenyl)acetamide], the figure is not below 10 µM.
In turn, `Cc1cc2nc(-c3ccc4ccccc4c3)[nH]c2cc1C` [Compound 28, 5,6-dimethyl-2-(naphthalen-2-yl)-1H-benzo[d]imidazole] registered an IC50 not above 1 µM.
`CCc1ccc(-c2nc3cc(Br)c(Br)cc3[nH]2)cc1` [Compound 39, 5,6-dibromo-2-(4-ethylphenyl)-1H-benzo[d]imidazole] came in with an IC50 of 1 to 10 µM.
As for `Fc1cc2nc(-c3ccc(-c4nnn[nH]4)cc3)[nH]c2cc1F` [Compound 61, 2-(4-(1H-tetrazol-5-yl)phenyl)-5,6-difluoro-1H-benzo[d]imidazole], the figure is not below 10 µM; as for `COc1ccc(-c2nc3cc(F)c(F)cc3[nH]2)cc1` [Compound 46, 5,6-difluoro-2-(4-methoxyphenyl)-1H-benzo[d]imidazole], not above 1 µM; as for `Fc1cc2nc(-c3ccoc3)[nH]c2cc1F` [Compound 32, 5,6-difluoro-2-(furan-3-yl)-1H-benzo[d]imidazole], not below 10 µM.
As for `FC(F)(F)c1ccc(-c2nc3ccccc3[nH]2)cc1` [Compound 36, 2-(4-(trifluoromethyl)phenyl)-1H-benzo[d]imidazole], the figure is 1 to 10 µM.
As for `Fc1cc2nc(-c3ccc(C(F)(F)F)cc3)[nH]c2cc1F` [Compound 16, 5,6-difluoro-2-(4-(trifluoromethyl)phenyl)-1H-benzo[d]imidazole], the figure is not above 1 µM.
`Cc1cc2nc(-c3ccncc3)[nH]c2cc1C` [Compound 29, 5,6-dimethyl-2-(pyridin-4-yl)-1H-benzo[d]imidazole] displayed an IC50 not below 10 µM.
Consider `CCCN(CCC)S(=O)(=O)c1ccc(-c2nc3cc(C)c(C)cc3[nH]2)cc1` [Compound 3, 4-(5,6-dimethyl-1H-benzo[d]imidazol-2-yl)-N,N-dipropylbenzenesulfonamide], for which the half-maximal inhibitory concentration (IC50) is 1 to 10 µM.
As for `O=C(Nc1cc(C(F)(F)F)cc(C(F)(F)F)c1)Nc1nc2ccccc2[nH]1` [Compound 14, 1-(1H-benzo[d]imidazol-2-yl)-3-(3,5-bis(trifluoromethyl)phenyl)urea], the figure is not below 10 µM; as for `FC(F)(F)c1ccc(-c2nc3cc(Cl)c(Cl)cc3[nH]2)cc1` [Compound 34, 5,6-dichloro-2-(4-(trifluoromethyl)phenyl)-1H-benzo[d]imidazole], 1 to 10 µM; as for `Cc1cc2nc(-c3ccc(-c4ccccc4)cc3)[nH]c2cc1C` [Compound 20, 2-([1,1′-biphenyl]-4-yl)-5,6-dimethyl-1H-benzo[d]imidazole], not above 1 µM.
As for `FC(F)(F)c1ccc(-c2nc3cc(Br)c(Br)cc3[nH]2)cc1` [Compound 38, 5,6-dibromo-2-(4-(trifluoromethyl)phenyl)-1H-benzo[d]imidazole], the figure is not below 10 µM.
